According to PMC5218480 (PLoS ONE, 2017):

Tested on: MV-4-11 cells
Assay: Gene expression microarray analysis (Affymetrix PrimeView) and GSEA
Assay type: cell-based, human
Design: RFU PODN (11730768_x_at) / Fold change /veh PODN (11730768_x_at) / RFU LINC00158 (11744669_a_at) / Fold change /veh LINC00158 (11744669_a_at) / RFU DUSP10 (11751237_a_at) / Fold change /veh DUSP10 (11751237_a_at) / RFU ID3 (11757404_x_at) / Fold change /veh ID3 (11757404_x_at) / RFU PLEKHG5 (11737974_s_at) / Fold change /veh PLEKHG5 (11737974_s_at) / RFU LRRC4B (11730491_at) / Fold change /veh LRRC4B (11730491_at) / RFU GIMAP4 (11747438_a_at) / Fold change /veh GIMAP4 (11747438_a_at) / RFU KRT8 (11758183_x_at) / Fold change /veh KRT8 (11758183_x_at) / RFU CNN1 (11734310_a_at) / Fold change /veh CNN1 (11734310_a_at) / RFU VPS37D (11726825_at) / Fold change /veh VPS37D (11726825_at) / RFU C10orf10 (11716522_x_at) / Fold change /veh C10orf10 (11716522_x_at) / RFU KIR2DL2 /// KIR2DL4 /// KIR2DL5A /// KIR2DL5B /// KIR2DS1 /// KIR2DS2 /// KIR2DS3 /// KIR2DS4 /// KIR3DL3 /// KIR3DL3 /// KIR3DS1 (11738374_at) / Fold change /veh KIR2DL2 /// KIR2DL4 /// KIR2DL5A /// KIR2DL5B /// KIR2DS1 /// KIR2DS2 /// KIR2DS3 /// KIR2DS4 /// KIR3DL3 /// KIR3DL3 /// KIR3DS1 (11738374_at) / RFU C1QL1 (11718748_at) / Fold change /veh C1QL1 (11718748_at) / RFU TMPRSS4 (11747572_a_at) / Fold change /veh TMPRSS4 (11747572_a_at) / RFU HAMP (11756126_x_at) / Fold change /veh HAMP (11756126_x_at) / RFU RNFT2 (11725882_a_at) / Fold change /veh RNFT2 (11725882_a_at) / RFU NR4A2 (11747474_a_at) / Fold change /veh NR4A2 (11747474_a_at) / RFU ABCC12 (11746883_a_at) / Fold change /veh ABCC12 (11746883_a_at) / RFU TMEM136 (11760407_x_at) / Fold change /veh TMEM136 (11760407_x_at) / RFU CLDN22 /// WWC2 (11732394_at) / Fold change /veh CLDN22 /// WWC2 (11732394_at) / RFU HLA-DPB1 (11760878_x_at) / Fold change /veh HLA-DPB1 (11760878_x_at) / RFU SPINT1 (11716480_a_at) / Fold change /veh SPINT1 (11716480_a_at) / RFU GAP43 (11754022_s_at) / Fold change /veh GAP43 (11754022_s_at) / RFU A4GNT (11735810_at) / Fold change /veh A4GNT (11735810_at) / RFU PRB3 (11715151_x_at) / Fold change /veh PRB3 (11715151_x_at) / RFU TUBB4B (11761932_at) / Fold change /veh TUBB4B (11761932_at) / RFU CAPN14 (11732068_a_at) / Fold change /veh CAPN14 (11732068_a_at) / RFU TMCC2 (11721928_a_at) / Fold change /veh TMCC2 (11721928_a_at) / RFU IRGQ (11745062_a_at) / Fold change /veh IRGQ (11745062_a_at) / RFU FAM174B (11720279_a_at) / Fold change /veh FAM174B (11720279_a_at) / RFU TMPRSS4 (11748680_a_at) / Fold change /veh TMPRSS4 (11748680_a_at) / RFU FAM212B (11763350_a_at) / Fold change /veh FAM212B (11763350_a_at) / RFU PLEKHG5 (11743358_a_at) / Fold change /veh PLEKHG5 (11743358_a_at) / RFU ZSCAN30 (11745921_a_at) / Fold change /veh ZSCAN30 (11745921_a_at) / RFU CMKLR1 (11741424_a_at) / Fold change /veh CMKLR1 (11741424_a_at) / RFU LOC101060620 /// MAPK8IP1 (11723275_at) / Fold change /veh LOC101060620 /// MAPK8IP1 (11723275_at) / RFU SPTSSB (11747773_x_at) / Fold change /veh SPTSSB (11747773_x_at) / RFU PRSS12 (11739890_at) / Fold change /veh PRSS12 (11739890_at) / RFU BIN1 (11741810_x_at) / Fold change /veh BIN1 (11741810_x_at) / RFU WNT11 (11732464_a_at) / Fold change /veh WNT11 (11732464_a_at) / RFU C10orf10 (11716521_a_at) / Fold change /veh C10orf10 (11716521_a_at) / RFU C5orf56 (11738089_at) / Fold change /veh C5orf56 (11738089_at) / RFU CYB561 (11721691_x_at) / Fold change /veh CYB561 (11721691_x_at) / RFU ANKRD19P (11752326_a_at) / Fold change /veh ANKRD19P (11752326_a_at) / RFU OR2T12 /// OR2T33 /// OR2T8 (11738714_s_at) / Fold change /veh OR2T12 /// OR2T33 /// OR2T8 (11738714_s_at) / RFU VCAN (11748164_a_at) / Fold change /veh VCAN (11748164_a_at) / RFU JSRP1 (11732532_at) / Fold change /veh JSRP1 (11732532_at) / RFU KRTAP10-11 (11738290_x_at) / Fold change /veh KRTAP10-11 (11738290_x_at) / RFU MYO3A (11730013_a_at) / Fold change /veh MYO3A (11730013_a_at) / RFU EBF3 (11725865_a_at) / Fold change /veh EBF3 (11725865_a_at) / RFU CAMK2N1 (11719241_x_at) / Fold change /veh CAMK2N1 (11719241_x_at) / RFU C5orf56 (11738088_a_at) / Fold change /veh C5orf56 (11738088_a_at) / RFU OLFML3 (11715873_a_at) / Fold change /veh OLFML3 (11715873_a_at) / RFU LOC100653217 /// NTM (11731650_a_at) / Fold change /veh LOC100653217 /// NTM (11731650_a_at) / RFU MAPK11 (11762145_a_at) / Fold change /veh MAPK11 (11762145_a_at) / RFU FIZ1 (11724087_x_at) / Fold change /veh FIZ1 (11724087_x_at) / RFU OASL (11726364_x_at) / Fold change /veh OASL (11726364_x_at) / RFU SOX15 (11748057_x_at) / Fold change /veh SOX15 (11748057_x_at) / RFU CD79A (11719716_a_at) / Fold change /veh CD79A (11719716_a_at) / RFU HIST1H1D (11736915_at) / Fold change /veh HIST1H1D (11736915_at) / RFU CASKIN2 (11723855_a_at) / Fold change /veh CASKIN2 (11723855_a_at) / RFU LOC730098 (11760151_x_at) / Fold change /veh LOC730098 (11760151_x_at) / RFU OR4N2 (11742367_at) / Fold change /veh OR4N2 (11742367_at) / RFU PRRT2 (11749266_a_at) / Fold change /veh PRRT2 (11749266_a_at) / RFU SNX32 (11753110_a_at) / Fold change /veh SNX32 (11753110_a_at) / RFU CDHR5 (11726645_a_at) / Fold change /veh CDHR5 (11726645_a_at) / RFU RCAN1 (11760418_a_at) / Fold change /veh RCAN1 (11760418_a_at) / RFU FAM167A (11723789_a_at) / Fold change /veh FAM167A (11723789_a_at) / RFU FAM26E (11764081_at) / Fold change /veh FAM26E (11764081_at) / RFU ISYNA1 (11749810_s_at) / Fold change /veh ISYNA1 (11749810_s_at) / RFU ACY1 (11761880_at) / Fold change /veh ACY1 (11761880_at) / RFU 11764098_at / Fold change /veh 11764098_at / RFU SAMD14 (11745864_x_at) / Fold change /veh SAMD14 (11745864_x_at) / RFU NPB (11741838_a_at) / Fold change /veh NPB (11741838_a_at) / RFU TMPRSS6 (11731388_a_at) / Fold change /veh TMPRSS6 (11731388_a_at) / RFU KRTAP10-2 (11738614_at) / Fold change /veh KRTAP10-2 (11738614_at) / RFU ARHGAP8 /// PRR5-ARHGAP8 (11727945_x_at) / Fold change /veh ARHGAP8 /// PRR5-ARHGAP8 (11727945_x_at) / RFU KRTAP5-7 /// NADSYN1 (11734609_at) / Fold change /veh KRTAP5-7 /// NADSYN1 (11734609_at) / RFU RASL12 (11751679_a_at) / Fold change /veh RASL12 (11751679_a_at) / RFU CDKN2B (11736163_a_at) / Fold change /veh CDKN2B (11736163_a_at) / RFU PRF1 (11729649_at) / Fold change /veh PRF1 (11729649_at) / RFU, ZNF638 /// ZNF638-IT1 / Fold change vs veh, ZNF638 /// ZNF638-IT1 / RFU, PANK3 / Fold change vs veh, PANK3 / RFU, SH3YL1 / Fold change vs veh, SH3YL1 / RFU, ZEB2 / Fold change vs veh, ZEB2 / RFU, NRIP1 / Fold change vs veh, NRIP1 / RFU, PTTG1IP / Fold change vs veh, PTTG1IP / RFU, CAPN2 / Fold change vs veh, CAPN2 / RFU, MED14 / Fold change vs veh, MED14 / RFU, SNORA58 / Fold change vs veh, SNORA58 / RFU, C1orf63 / Fold change vs veh, C1orf63 / RFU, LRRFIP1 / Fold change vs veh, LRRFIP1 / RFU, NDUFAF7 / Fold change vs veh, NDUFAF7 / RFU, SLC12A2 / Fold change vs veh, SLC12A2 / RFU, IBTK / Fold change vs veh, IBTK / RFU, ESF1 / Fold change vs veh, ESF1 / Fold change vs veh, TMEM50B / RFU, TAOK1 / Fold change vs veh, TAOK1 / RFU, ACBD3 / Fold change vs veh, ACBD3 / RFU, TMA16 / Fold change vs veh, TMA16 / RFU, RWDD3 / Fold change vs veh, RWDD3 / RFU, BCAT1 / Fold change vs veh, BCAT1 / RFU, EDEM3 / Fold change vs veh, EDEM3 / RFU, TMEM33 / Fold change vs veh, TMEM33 / RFU, WDR75 / Fold change vs veh, WDR75 / RFU, AHCTF1 / Fold change vs veh, AHCTF1 / RFU, TFRC / Fold change vs veh, TFRC / RFU, ZDHHC17 / Fold change vs veh, ZDHHC17 / RFU, NOM1 / Fold change vs veh, NOM1 / RFU, ARL8B / Fold change vs veh, ARL8B / RFU, ZBTB11 / Fold change vs veh, ZBTB11 / RFU, TAMM41 / Fold change vs veh, TAMM41 / RFU, KIAA1704 /// LOC100996395 / Fold change vs veh, KIAA1704 /// LOC100996395 / RFU, ING1 / Fold change vs veh, ING1 / RFU, TRMT61B / Fold change vs veh, TRMT61B / RFU, FUBP3 / Fold change vs veh, FUBP3 / RFU, TP53 / Fold change vs veh, TP53 / RFU, TNKS2 / Fold change vs veh, TNKS2 / RFU, ZFP14 / Fold change vs veh, ZFP14 / RFU, ACTR2 / Fold change vs veh, ACTR2 / RFU, PPP3R1 / Fold change vs veh, PPP3R1 / RFU, PIK3R1 / Fold change vs veh, PIK3R1 / RFU, HNRNPA1 / Fold change vs veh, HNRNPA1 / RFU, RNF170 / Fold change vs veh, RNF170 / RFU, ZNF28 / Fold change vs veh, ZNF28 / RFU, RNGTT / Fold change vs veh, RNGTT / RFU, OGT / Fold change vs veh, OGT / RFU, BRD1 / Fold change vs veh, BRD1 / RFU, MARS / Fold change vs veh, MARS / RFU, ZNF655 / Fold change vs veh, ZNF655 / RFU, FAHD1 / Fold change vs veh, FAHD1 / RFU, BDP1 / Fold change vs veh, BDP1 / RFU, LRRCC1 / Fold change vs veh, LRRCC1 / RFU, ARID1A / Fold change vs veh, ARID1A / RFU, ZNF146 / Fold change vs veh, ZNF146 / RFU, ZNF330 / Fold change vs veh, ZNF330 / RFU, GPN3 / Fold change vs veh, GPN3 / RFU, C9orf123 / Fold change vs veh, C9orf123 / RFU, N4BP2L2 / Fold change vs veh, N4BP2L2 / RFU, ARFIP1 / Fold change vs veh, ARFIP1 / RFU, FAM179B / Fold change vs veh, FAM179B / RFU, BCL10 / Fold change vs veh, BCL10 / RFU, UHRF1BP1L / Fold change vs veh, UHRF1BP1L / RFU, BET1 / Fold change vs veh, BET1 / RFU, CNOT2 / Fold change vs veh, CNOT2 / RFU, ZNF268 / Fold change vs veh, ZNF268 / Fold change vs veh, ZNF507 / RFU, DGCR2 / Fold change vs veh, DGCR2 / RFU, WDSUB1 / Fold change vs veh, WDSUB1 / Fold change vs veh, HSP90B1 /// MIR3652 / RFU, ADSS / Fold change vs veh, ADSS / RFU, GK / Fold change vs veh, GK / RFU, ZNF148 / Fold change vs veh, ZNF148 / RFU, TAF9 / Fold change vs veh, TAF9 / RFU, SLC1A5 / Fold change vs veh, SLC1A5 / RFU, SLMO2 / Fold change vs veh, SLMO2 / RFU, ABCC4 / Fold change vs veh, ABCC4 / RFU, LOC101060439 /// RAP1B / Fold change vs veh, LOC101060439 /// RAP1B / RFU, RFX7 / Fold change vs veh, RFX7 / RFU, GTPBP10 / Fold change vs veh, GTPBP10 / RFU, CNEP1R1 / Fold change vs veh, CNEP1R1 / RFU, BIVM-ERCC5 /// ERCC5 / Fold change vs veh, BIVM-ERCC5 /// ERCC5 / RFU, ILF3 / Fold change vs veh, ILF3 / RFU 11762660_at / Fold change /veh 11762660_at / RFU VCAN (11757783_s_at) / Fold change /veh VCAN (11757783_s_at) / RFU DDX43 (11728927_at) / Fold change /veh DDX43 (11728927_at) / RFU KRT8 (11758188_x_at) / Fold change /veh KRT8 (11758188_x_at) / RFU NKD1 (11759106_at) / Fold change /veh NKD1 (11759106_at) / RFU SRD5A1 (11742802_a_at) / Fold change /veh SRD5A1 (11742802_a_at) / RFU TPSAB1 /// TPSB2 (11721975_s_at) / Fold change /veh TPSAB1 /// TPSB2 (11721975_s_at) / RFU GSTM3 (11746129_a_at) / Fold change /veh GSTM3 (11746129_a_at) / RFU IL23R (11737362_x_at) / Fold change /veh IL23R (11737362_x_at) / RFU TMEM51 (11727254_a_at) / Fold change /veh TMEM51 (11727254_a_at) / RFU PIWIL2 (11732686_x_at) / Fold change /veh PIWIL2 (11732686_x_at) / RFU ORM1 (11744905_x_at) / Fold change /veh ORM1 (11744905_x_at) / RFU CCDC152 (11743942_at) / Fold change /veh CCDC152 (11743942_at) / RFU ECM1 (11717891_a_at) / Fold change /veh ECM1 (11717891_a_at) / RFU IL23R (11748794_a_at) / Fold change /veh IL23R (11748794_a_at) / RFU TNFAIP8L3 (11732012_x_at) / Fold change /veh TNFAIP8L3 (11732012_x_at) / RFU MBOAT4 (11741988_at) / Fold change /veh MBOAT4 (11741988_at) / RFU 11764193_at / Fold change /veh 11764193_at / RFU TMEM53 (11763286_at) / Fold change /veh TMEM53 (11763286_at) / RFU MAGEB2 (11727129_at) / Fold change /veh MAGEB2 (11727129_at) / RFU TMEM200A (11744735_a_at) / Fold change /veh TMEM200A (11744735_a_at) / RFU CCDC152 (11751479_a_at) / Fold change /veh CCDC152 (11751479_a_at) / RFU FAM211A (11726209_a_at) / Fold change /veh FAM211A (11726209_a_at) / RFU RGS16 (11746705_a_at) / Fold change /veh RGS16 (11746705_a_at) / RFU VCAN (11755009_s_at) / Fold change /veh VCAN (11755009_s_at) / RFU RHOB (11743442_s_at) / Fold change /veh RHOB (11743442_s_at) / RFU RGS16 (11720943_a_at) / Fold change /veh RGS16 (11720943_a_at) / RFU RGS16 (11720944_at) / Fold change /veh RGS16 (11720944_at) / RFU, VPS4B / Fold change vs veh, VPS4B / RFU, CREB1 / Fold change vs veh, CREB1 / RFU, DNAJC13 / Fold change vs veh, DNAJC13 / RFU, GNAQ / Fold change vs veh, GNAQ / RFU, CDK5R1 / Fold change vs veh, CDK5R1 / RFU, ZRANB3 / Fold change vs veh, ZRANB3 / RFU, CUL4A / Fold change vs veh, CUL4A / RFU, CCNY / Fold change vs veh, CCNY / RFU, UFL1 / Fold change vs veh, UFL1 / RFU, COG3 / Fold change vs veh, COG3 / RFU, DIAPH2 / Fold change vs veh, DIAPH2 / RFU, SKA2 / Fold change vs veh, SKA2 / RFU, AFF3 / Fold change vs veh, AFF3 / RFU, LMF1 / Fold change vs veh, LMF1 / RFU, IPO11 / Fold change vs veh, IPO11 / RFU, DFFB / Fold change vs veh, DFFB / RFU, FOXP1 / Fold change vs veh, FOXP1 / RFU, CARD8 / Fold change vs veh, CARD8 / RFU, STRN3 / Fold change vs veh, STRN3 / RFU, ADK / Fold change vs veh, ADK / RFU, RASSF2 / Fold change vs veh, RASSF2 / RFU, WIPF1 / Fold change vs veh, WIPF1 / RFU, LARP1B / Fold change vs veh, LARP1B / RFU, RASA1 / Fold change vs veh, RASA1 / RFU, RB1 / Fold change vs veh, RB1 / RFU, PPFIA1 / Fold change vs veh, PPFIA1 / RFU, MAT2A / Fold change vs veh, MAT2A / RFU, CCT5 / Fold change vs veh, CCT5 / RFU, WDR92 / Fold change vs veh, WDR92 / RFU, CUX1 / Fold change vs veh, CUX1 / RFU, TTC7A / Fold change vs veh, TTC7A / RFU, TMEM135 / Fold change vs veh, TMEM135 / RFU, DEPTOR / Fold change vs veh, DEPTOR / RFU, CPM / Fold change vs veh, CPM / RFU, DNAJB6 / Fold change vs veh, DNAJB6 / RFU, CACNA2D3 / Fold change vs veh, CACNA2D3 / RFU, DTX4 / Fold change vs veh, DTX4 / RFU, TFCP2 / Fold change vs veh, TFCP2 / RFU, GMCL1 /// GMCL1P1 / Fold change vs veh, GMCL1 /// GMCL1P1 / RFU, AEBP2 / Fold change vs veh, AEBP2 / RFU, SNHG1 /// SNORD22 /// SNORD25 /// SNORD26 /// SNORD27 /// SNORD28 /// SNORD29 /// SNORD31 / Fold change vs veh, SNHG1 /// SNORD22 /// SNORD25 /// SNORD26 /// SNORD27 /// SNORD28 /// SNORD29 /// SNORD31 / Fold change (Aza/veh), C12orf56 (ProbeSet 11735607_a_at) / Fold change (ACY-1035/veh), C12orf56 (ProbeSet 11735607_a_at) / Fold change (Aza/veh), FGFR1OP (ProbeSet 11751329_s_at) / Fold change (ACY-1035/veh), FGFR1OP (ProbeSet 11751329_s_at) / Fold change (Aza/veh), VPS36 (ProbeSet 11739960_a_at) / Fold change (ACY-1035/veh), VPS36 (ProbeSet 11739960_a_at) / RFU SYPL1 (11715823_x_at) / Fold change /veh SYPL1 (11715823_x_at) / RFU IGFBP7 (11715501_s_at) / Fold change /veh IGFBP7 (11715501_s_at) / RFU REEP3 (11722064_at) / Fold change /veh REEP3 (11722064_at) / RFU IGLL1 (11728026_x_at) / Fold change /veh IGLL1 (11728026_x_at): dose or concentration left out as unconfirmed
Settings: ProbeSet 11755425_a_at; LIST B

Nc1ncn([C@@H]2O[C@H](CO)[C@@H](O)[C@H]2O)c(=O)n1 [azacitidine]
Fold change vs veh, FAM179B: 0.87
